Measured values as given in ChEMBL document CHEMBL1681710, “Pyridyl amides as potent inhibitors of T-type calcium channels” (Bioorg Med Chem Lett, 2011).
Each block holds one molecule with its values, some of them ahead of it. Active and inactive are the calls of the source. The calls are words filed in the database; no cut-off is given here.

Experiments:
[1] = molecular target: T1, Voltage-dependent T-type calcium channel subunit alpha-1I (Homo sapiens, UniProt Q9P0X4); assay: Antagonist activity at Cav3.3 alpha1i expressed in HEK293 cells by depolarized FLIPR assay; assay type: functional, cell-based
T1 sequence (Q9P0X4 whole entry): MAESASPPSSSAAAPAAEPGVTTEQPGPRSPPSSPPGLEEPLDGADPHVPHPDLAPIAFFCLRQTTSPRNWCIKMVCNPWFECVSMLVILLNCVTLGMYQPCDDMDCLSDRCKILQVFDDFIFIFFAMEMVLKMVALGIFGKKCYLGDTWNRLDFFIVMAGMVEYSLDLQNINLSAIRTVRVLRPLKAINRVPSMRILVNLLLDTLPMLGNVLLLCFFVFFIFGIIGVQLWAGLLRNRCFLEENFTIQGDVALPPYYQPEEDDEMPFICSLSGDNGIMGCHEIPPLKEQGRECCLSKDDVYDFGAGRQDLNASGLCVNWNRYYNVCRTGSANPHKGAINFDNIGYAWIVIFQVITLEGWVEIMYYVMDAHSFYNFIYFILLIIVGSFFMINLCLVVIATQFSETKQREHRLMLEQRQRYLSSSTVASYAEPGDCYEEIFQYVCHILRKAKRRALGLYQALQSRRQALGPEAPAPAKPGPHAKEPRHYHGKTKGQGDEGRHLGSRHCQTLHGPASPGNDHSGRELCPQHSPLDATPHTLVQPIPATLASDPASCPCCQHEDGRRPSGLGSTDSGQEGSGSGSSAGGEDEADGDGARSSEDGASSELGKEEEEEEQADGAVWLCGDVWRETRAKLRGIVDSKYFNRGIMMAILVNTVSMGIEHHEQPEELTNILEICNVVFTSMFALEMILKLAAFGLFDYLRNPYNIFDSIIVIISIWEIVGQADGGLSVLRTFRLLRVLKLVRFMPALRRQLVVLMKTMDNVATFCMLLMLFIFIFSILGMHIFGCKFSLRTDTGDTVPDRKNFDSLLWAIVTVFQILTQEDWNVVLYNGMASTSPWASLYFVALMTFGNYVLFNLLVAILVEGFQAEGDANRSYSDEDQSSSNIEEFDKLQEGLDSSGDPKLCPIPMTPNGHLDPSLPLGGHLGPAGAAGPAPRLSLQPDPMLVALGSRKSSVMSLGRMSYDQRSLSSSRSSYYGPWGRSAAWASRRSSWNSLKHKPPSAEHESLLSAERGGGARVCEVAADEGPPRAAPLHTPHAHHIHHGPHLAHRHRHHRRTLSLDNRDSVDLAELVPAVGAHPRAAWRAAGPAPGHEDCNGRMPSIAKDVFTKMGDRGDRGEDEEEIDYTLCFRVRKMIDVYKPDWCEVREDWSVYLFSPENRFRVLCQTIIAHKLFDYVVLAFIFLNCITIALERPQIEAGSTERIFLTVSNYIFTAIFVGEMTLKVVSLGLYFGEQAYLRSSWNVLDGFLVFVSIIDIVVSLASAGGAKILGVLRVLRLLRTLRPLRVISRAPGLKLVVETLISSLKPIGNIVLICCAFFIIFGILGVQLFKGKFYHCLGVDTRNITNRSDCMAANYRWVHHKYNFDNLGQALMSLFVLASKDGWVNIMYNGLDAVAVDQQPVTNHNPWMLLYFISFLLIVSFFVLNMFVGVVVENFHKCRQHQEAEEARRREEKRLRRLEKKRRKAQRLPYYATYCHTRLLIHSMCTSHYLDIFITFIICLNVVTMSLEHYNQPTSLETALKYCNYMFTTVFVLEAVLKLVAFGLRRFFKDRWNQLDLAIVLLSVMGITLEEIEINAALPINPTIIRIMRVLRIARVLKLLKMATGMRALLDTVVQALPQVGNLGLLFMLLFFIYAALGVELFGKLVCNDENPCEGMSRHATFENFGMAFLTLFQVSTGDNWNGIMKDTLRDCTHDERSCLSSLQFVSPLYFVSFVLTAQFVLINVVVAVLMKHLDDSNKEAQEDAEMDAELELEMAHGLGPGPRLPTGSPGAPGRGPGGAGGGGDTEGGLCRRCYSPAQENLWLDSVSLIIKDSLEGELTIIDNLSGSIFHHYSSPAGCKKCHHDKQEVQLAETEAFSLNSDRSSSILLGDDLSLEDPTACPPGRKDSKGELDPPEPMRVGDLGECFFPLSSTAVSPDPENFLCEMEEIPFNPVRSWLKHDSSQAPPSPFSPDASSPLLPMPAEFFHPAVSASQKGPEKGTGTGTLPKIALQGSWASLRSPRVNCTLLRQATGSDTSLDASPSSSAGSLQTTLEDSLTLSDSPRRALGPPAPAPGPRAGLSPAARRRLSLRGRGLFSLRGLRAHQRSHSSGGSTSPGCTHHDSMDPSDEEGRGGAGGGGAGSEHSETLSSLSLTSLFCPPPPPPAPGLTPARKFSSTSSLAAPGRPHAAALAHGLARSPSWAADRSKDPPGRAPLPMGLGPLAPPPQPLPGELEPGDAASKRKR

[2] = molecular target: T1, Voltage-dependent T-type calcium channel subunit alpha-1I; assay: Binding affinity to Cav3.3 alpha1i
[3] = molecular target: Voltage-gated inwardly rectifying potassium channel KCNH2 (Homo sapiens, UniProt Q12809); assay: Inhibition of human ERG
Sequence of Voltage-gated inwardly rectifying potassium channel KCNH2 (Q12809 whole entry): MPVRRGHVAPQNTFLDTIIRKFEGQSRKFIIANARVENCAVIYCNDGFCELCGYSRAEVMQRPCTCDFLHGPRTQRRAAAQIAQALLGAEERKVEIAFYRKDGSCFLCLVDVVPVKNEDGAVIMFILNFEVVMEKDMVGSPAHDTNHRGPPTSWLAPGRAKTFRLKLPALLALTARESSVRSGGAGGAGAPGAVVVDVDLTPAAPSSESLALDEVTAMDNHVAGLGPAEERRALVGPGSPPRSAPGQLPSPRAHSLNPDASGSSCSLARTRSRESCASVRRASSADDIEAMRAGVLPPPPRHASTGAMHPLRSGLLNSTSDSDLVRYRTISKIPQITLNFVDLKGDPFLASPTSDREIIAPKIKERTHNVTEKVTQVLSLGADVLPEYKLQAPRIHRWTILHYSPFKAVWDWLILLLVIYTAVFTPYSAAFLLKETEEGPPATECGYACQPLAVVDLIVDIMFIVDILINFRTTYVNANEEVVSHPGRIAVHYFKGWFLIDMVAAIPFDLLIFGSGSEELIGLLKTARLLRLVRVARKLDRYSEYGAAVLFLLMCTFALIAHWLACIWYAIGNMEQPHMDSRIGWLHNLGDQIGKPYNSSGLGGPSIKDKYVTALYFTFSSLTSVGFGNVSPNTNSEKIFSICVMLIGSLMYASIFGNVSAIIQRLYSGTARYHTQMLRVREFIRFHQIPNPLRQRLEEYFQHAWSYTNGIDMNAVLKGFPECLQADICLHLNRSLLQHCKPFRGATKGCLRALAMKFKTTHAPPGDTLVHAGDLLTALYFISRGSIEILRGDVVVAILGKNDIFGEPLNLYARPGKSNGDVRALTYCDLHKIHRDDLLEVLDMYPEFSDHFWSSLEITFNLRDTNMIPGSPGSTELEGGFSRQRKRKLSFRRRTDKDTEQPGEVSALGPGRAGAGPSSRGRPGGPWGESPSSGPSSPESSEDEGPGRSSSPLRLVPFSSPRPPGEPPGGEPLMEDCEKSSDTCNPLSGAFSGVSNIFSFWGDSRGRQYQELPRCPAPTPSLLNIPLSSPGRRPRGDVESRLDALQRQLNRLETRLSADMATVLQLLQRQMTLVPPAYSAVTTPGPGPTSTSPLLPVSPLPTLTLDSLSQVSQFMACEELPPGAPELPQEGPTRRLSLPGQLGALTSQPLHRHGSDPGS

[4] = Binding affinity to L-type Ca2+ channel
[5] = test system: Rattus norvegicus; assay: Antiepileptic activity in WAG/Rij rat seizure model assessed as reduction in total seizure time measured for 4 hrs at 10 mg/kg, po by radiotelemetric physiologic monitor; assay type: functional
[6] = molecular target: T1, Voltage-dependent T-type calcium channel subunit alpha-1I; assay: Antagonist activity at Cav3.3 alpha1i expressed in HEK293 cells at -100 mV by standard voltage-clamp electrophysiology assay; assay type: functional, cell-based
[7] = Plasma clearance in dog at 0.5 mg/kg, iv; assay type: ADME, organism-based, Canis lupus familiaris; parameters: dose 0.5 mg/kg, route intravenous
[8] = Half life in dog at 0.5 mg/kg, iv; assay type: ADME, organism-based, Canis lupus familiaris; parameters: dose 0.5 mg/kg, route intravenous; conditions: in vivo
[9] = Volume of distribution at steady state in dog at 0.5 mg/kg, iv; assay type: ADME, organism-based, Canis lupus familiaris; parameters: dose 0.5 mg/kg, route intravenous; conditions: in vivo
[10] = Bioavailability in dog at 0.5 mg/kg, iv; assay type: ADME, organism-based, Canis lupus familiaris; conditions: in vivo
[11] = Plasma clearance in rhesus monkey at 0.5 mg/kg, iv; assay type: ADME, organism-based, Macaca mulatta; parameters: dose 0.5 mg/kg, route intravenous
[12] = Half life in rhesus monkey at 0.5 mg/kg, iv; assay type: ADME, organism-based, Macaca mulatta; parameters: dose 0.5 mg/kg, route intravenous; conditions: in vivo
[13] = Volume of distribution at steady state in rhesus monkey at 0.5 mg/kg, iv; assay type: ADME, organism-based, Macaca mulatta; parameters: dose 0.5 mg/kg, route intravenous; conditions: in vivo
[14] = Bioavailability in rhesus monkey at 0.5 mg/kg, iv; assay type: ADME, organism-based, Macaca mulatta; conditions: in vivo
[15] = test system: Rattus norvegicus; assay: Effect on sleep architecture in rat assessed as reduction in active awake at 3 mg/kg, po up to 4 hrs; assay type: functional, organism-based; parameters: dose 3 mg/kg
[16] = test system: Rattus norvegicus; assay: Effect on sleep architecture in po dosed rat assessed as reduction in active awake up to 4 hrs; assay type: functional, organism-based
[17] = test system: Rattus norvegicus; assay: Effect on sleep architecture in rat assessed as reduction in REM sleep at 3 mg/kg, po up to 4 hrs; assay type: functional, organism-based; parameters: dose 3 mg/kg
[18] = test system: Rattus norvegicus; assay: Effect on sleep architecture in rat assessed as increase in delta sleep at 3 mg/kg, po up to 4 hrs; assay type: functional, organism-based; parameters: dose 3 mg/kg
[19] = Cmax in non-implanted rat plasma after 1.2 hrs; assay type: ADME, organism-based
[20] = molecular target: Voltage-dependent T-type calcium channel subunit alpha-1G (Homo sapiens, UniProt O43497); assay: Inhibition of Cav3.1 alpha1G at -80 mV holding potential by tandard voltage-clamp electrophysiology assay
[21] = molecular target: Voltage-dependent T-type calcium channel subunit alpha-1H (Homo sapiens, UniProt O95180); assay: Inhibition of Cav3.2 alpha1H at -80 mV holding potential by tandard voltage-clamp electrophysiology assay
[22] = molecular target: Voltage-dependent L-type calcium channel subunit alpha-1C (Homo sapiens, UniProt Q13936); assay: Inhibition of L-type Cav1.2 at -80 mV holding potential by tandard voltage-clamp electrophysiology assay
[23] = molecular target: Voltage-dependent P/Q-type calcium channel subunit alpha-1A (Homo sapiens, UniProt O00555); assay: Inhibition of P/Q-type Cav2.1 at -80 mV holding potential by tandard voltage-clamp electrophysiology assay
[24] = molecular target: Voltage-dependent N-type calcium channel subunit alpha-1B (Homo sapiens, UniProt Q00975); assay: Inhibition of N-type Cav2.2 at -80 mV holding potential by tandard voltage-clamp electrophysiology assay
[25] = molecular target: Voltage-dependent R-type calcium channel subunit alpha-1E (Homo sapiens, UniProt Q15878); assay: Inhibition of R-type Cav2.3 at -80 mV holding potential by tandard voltage-clamp electrophysiology assay
[26] = organism: Mus musculus; assay: Inhibition of high-fat diet-induced weight gain in mouse; assay type: functional, organism-based
[27] = Half life in rat at 2 mg/kg, iv; conditions: in vivo
[28] = Plasma clearance in rat at 2 mg/kg, iv
[29] = Bioavailability in rat at 2 mg/kg, iv and 10 mg/kg, po; conditions: in vivo
[30] = Volume of distribution at steady state in rat at 2 mg/kg, iv; conditions: in vivo

IP [1]: 439 nM
Compound: COc1ccc([C@@H](C)NC(=O)Cc2ccc(Oc3ccccc3)cc2)nc1

IP [1]: 235 nM
Compound: C[C@@H](NC(=O)Cc1ccc(C(C)(C)C)cc1)c1ccccc1

IP [1]: 21 nM
Compound: C[C@@H](NC(=O)Cc1ccc(C2CC2)cc1)c1ccc(OCc2ccccc2)cn1

IP [1]: 332 nM
Compound: CC(NC(=O)Cc1ccc(C(C)(C)C)cc1)c1ccccc1Cl (racemic)

IP [1]: 1720 nM
Compound: C[C@@H](NC(=O)Cc1ccc(C2CC2)cc1)c1ccc(O)cn1

IP [1]: > 5000 nM
Compound: COc1ccc([C@@H](C)NC(=O)Cc2ccccc2Cl)nc1

IP [1]: 1450 nM
Compound: COC(=O)c1ccc(CC(=O)N[C@H](C)c2ccc(OC)cn2)cc1

IP [1]: 70 nM
Compound: COc1ccc([C@@H](C)NC(=O)Cc2ccc(C3CC3)cc2)nc1

IP [1]: 1330 nM
Compound: COc1ccc([C@@H](C)NC(=O)Cc2ccc(Cl)cc2)nc1

IP [1]: > 10000 nM
Compound: COc1ccc([C@@H](C)NC(=O)Cc2ccc(S(C)(=O)=O)cc2)nc1

IP [1]: 1130 nM
Compound: COc1ccc([C@@H](C)NC(=O)Cc2ccc(C(C)(C)O)cc2)nc1

IP [1]: > 5000 nM
Compound: COc1ccc([C@@H](C)NC(=O)Cc2ccc(C#N)cc2)nc1

IP [1]: > 10000 nM
Compound: COc1ccc([C@@H](C)NC(=O)Cc2ccc(F)cc2)nc1

Ki [2]: 0.0012 µM
IP [1]: 6 nM
IC50 [4]: > 10 µM
IC50 [6]: 3.7 µM
clearance [7]: 0.9 mL/min/kg
half-life [8]: 11 h
Vd [9]: 0.7 L/kg
bioavailability [10]: 43%
clearance [11]: 17 mL/min/kg
half-life [12]: 0.9 h
Vd [13]: 0.9 L/kg
bioavailability [14]: 7%
Cmax [19]: 4 µM
IC50 [20]: 0.089 µM
IC50 [21]: 0.092 µM
IC50 [23]: > 30 µM
IC50 [24]: > 30 µM
IC50 [25]: > 30 µM
half-life [27]: 1.5 h
clearance [28]: 6 mL/min/kg
bioavailability [29]: 68%
Vd [30]: 0.8 L/kg
Compound: C[C@@H](NC(=O)Cc1ccc(C2CC2)cc1)c1ccc(OCC(F)(F)F)cn1
IC50 [3]: > 10 µM
inhibition in vivo at 10 mg/kg [5]: 87%
Activity [15]: Active
Activity [16]: Dose-dependent effect
Activity [17]: Active
Activity [18]: Active
IC50 [22]: > 30 µM
inhibition [26]: Active

IP [1]: 5480 nM
Compound: CC(C)(C)c1ccc(CC(=O)NC(C)(C)c2ccccc2)cc1

IP [1]: 146 nM
Compound: COc1ccc([C@@H](C)NC(=O)Cc2ccc(C(C)(C)C)cc2)cc1

IP [1]: 10 nM
Compound: CCCOc1ccc([C@@H](C)NC(=O)Cc2ccc(C(C)C)cc2)nc1

IP [1]: 2780 nM
Compound: COc1ccc([C@@H](C)NC(=O)Cc2cccc(Cl)c2)nc1

IP [1]: 45 nM
Compound: COc1ccc([C@@H](C)NC(=O)Cc2ccc(C(C)C)cc2)nc1

IP [1]: > 10000 nM
Compound: COc1ccc([C@@H](C)NC(=O)Cc2ccccc2)nc1

IP [1]: 252 nM
Compound: COc1ccc([C@@H](C)NC(=O)Cc2ccc(Cl)c(Cl)c2)nc1

IP [1]: 5 nM
Compound: CC(C)c1ccc(CC(=O)N[C@H](C)c2ccc(OCC(F)(F)F)cn2)cc1

IP [1]: 427 nM
Compound: CC(NC(=O)Cc1ccc(C(C)(C)C)cc1)c1ccccn1 (racemic)

IP [1]: > 10000 nM
Compound: C[C@H](c1ccccc1)N(C)C(=O)Cc1ccc(C(C)(C)C)cc1

IP [1]: 4680 nM
Compound: C[C@H](NC(=O)Cc1ccc(C(C)(C)C)cc1)c1ccccc1

IP [1]: 146 nM
Compound: COc1cccc([C@@H](C)NC(=O)Cc2ccc(C(C)(C)C)cc2)c1

IP [1]: 11 nM
Compound: CCCOc1ccc([C@@H](C)NC(=O)Cc2ccc(C3CC3)cc2)nc1

IP [1]: > 10000 nM
Compound: CC(NC(=O)Cc1ccc(C(C)(C)C)cc1)c1ccncc1 (racemic)

IP [1]: 1740 nM
Compound: COc1ccc(CC(=O)N[C@H](C)c2ccc(OC)cn2)cc1

IP [1]: 5380 nM
Compound: CC(NC(=O)Cc1ccc(C(C)(C)C)cc1)c1cccnc1 (racemic)

IP [1]: 123 nM
Compound: C[C@@H](NC(=O)Cc1ccc(C(C)(C)C)cc1)c1ccc(Cl)cc1

Ki [2]: 0.005 µM
IP [1]: 22 nM
IC50 [4]: > 10 µM
Compound: COc1ccc([C@@H](C)NC(=O)Cc2ccc(C(C)(C)C)cc2)nc1
IC50 [3]: > 10 µM
inhibition in vivo at 10 mg/kg [5]: 49%

IP [1]: 920 nM
Compound: CC(C)c1ccc(CC(=O)N[C@H](C)c2ccc(O)cn2)cc1

IP [1]: 30 nM
Compound: C[C@@H](NC(=O)Cc1ccc(C(C)(C)C)cc1)c1ccc(Cl)cn1

IP [1]: 16 nM
Compound: CC(C)c1ccc(CC(=O)N[C@H](C)c2ccc(OCc3ccccc3)cn2)cc1
